Broadly, the IC50 is the concentration that inhibits the measured activity by half. A high value points to lower potency.

Results on 23 compounds are retold here after US8541584B2, “3-(1,2,3-triazol-4-yl) pyrrolo [2,3-b] pyridine derivatives” (Merck Patent GmbH, priority 2009, dated 2013).

For test [1], the target named is T1, PDK1 (Homo sapiens, UniProt O15530).
T1 construct: His6 (N)
T1 sequence (O15530 51-556 limits assumed): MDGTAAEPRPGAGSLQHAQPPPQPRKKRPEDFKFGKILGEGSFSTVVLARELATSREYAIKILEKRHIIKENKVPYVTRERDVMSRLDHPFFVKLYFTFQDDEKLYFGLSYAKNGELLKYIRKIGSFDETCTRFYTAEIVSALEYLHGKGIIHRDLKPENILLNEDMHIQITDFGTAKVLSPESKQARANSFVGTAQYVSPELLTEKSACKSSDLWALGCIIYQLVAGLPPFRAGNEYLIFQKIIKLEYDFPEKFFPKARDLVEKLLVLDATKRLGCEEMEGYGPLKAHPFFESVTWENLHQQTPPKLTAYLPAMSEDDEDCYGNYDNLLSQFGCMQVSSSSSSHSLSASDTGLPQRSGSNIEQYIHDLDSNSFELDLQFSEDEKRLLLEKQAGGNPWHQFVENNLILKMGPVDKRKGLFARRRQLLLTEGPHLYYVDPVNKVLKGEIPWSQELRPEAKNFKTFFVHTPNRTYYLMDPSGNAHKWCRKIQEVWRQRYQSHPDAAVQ
Kind of test: Test for the inhibition of PDK1 (384-well flashplate, 33P-ATP). In kind it is biochemical. Particulars: His6-PDK1 3.4 nM, 4 μM ATP, 30° C., 60 min. On the procedure:
4.0 Test for the Inhibition of PDK1
The experimental batches are carried out in a flashplate system with 384 wells/microtitration plate.
In each case, the PDK1 sample His6-PDK1(1-50)(3.4 nM), the PDK1 substrate biotin-bA-bA-[…] (400 nM), 4 μM ATP (with 0.2 μCi of ^33P-ATP/well) and the test substance in 50 μl of conventional experimental solution per well are incubated at 30° C. for 60 min. The test substances are employed in corresponding concentrations (if desired in a dilution series). The control is carried out without test substance. The reaction is stopped using standard methods and washed. The activity of the kinase is measured via the incorporated radioactivity in top count. In order to determine the non-specific kinase reaction (blank value), the experimental batches are carried out in the presence of 100 nM staurosporin.
The radioactivity (decompositions per minute) of the blank value (no use of test substance in the presence of staurosporin) is subtracted from all other radioactivity values. The controls (kinase activity without test substance) are set equal to 100 percent and all other radioactivity values (after subtracting the blank value) are expressed set in relation thereto (for example in % of the control).
IC50 values (50% inhibition) are determined with the aid of statistics programmes, such as, for example, RS1.

Test [2] deals with PDK1 kinase activity (P-T308-PKB) in PC3 cells. Kind of test: Cellular testing of PDK1 kinase inhibitors (Luminex assay, P-T308-PKB in PC3 cells). In kind it is cell-based. Particulars: Homo sapiens, PC-3, 0.5 h, serum-free, 30 min with test substance. The procedure:
Description of the Method for Cellular Testing of PDK1 Kinase Inhibitors
The cellular assay for determination of the PDK1 kinase activity is performed as Luminex assay in the 96-well format. PC3 cells are sown at 20,000 cells per well in 100 μl of medium (45% of […]/45% of Ham's F12/10% of FCS) and incubated under serum-free conditions on the following day for 30 min with serial dilution of the test substance (7 concentrations). The cells are subsequently lysed using 90 μl of lysis buffer (20 mM Tris/HCl pH 8.0, 150 mM NaCl, 1% of NP40, 10% of glycerol, 1% of phosphatase inhibitor I, 1% of phosphatase inhibitor II, 0.1% of protease inhibitor Cocktail III, 0.01% of benzonase) per well, and the lysates are separated off from insoluble cell constituents by means of centrifugation through a 96-well filter plate (0.65 μm). The lysates are incubated overnight at 4° C. with shaking with Luminex beads to which an anti-total PKB antibody has been coupled. Detection is carried out on the following day by addition of a P-T308-PKB antibody and a species-specific PE-labelled secondary antibody. The determination of P-T308-PKB is carried out by measurement in the Luminex100 instrument by determination of 100 events per cavity in a measurement time of 60 sec. As pharmacological blank, the signals obtained from cells which have been treated with 10 μM staurosporin are subtracted from all other batches. The control value used for maximum phosphorylation of PKB on T308 are the signals from cells which have been treated only with the solvent (0.3% of DMSO). The values of the batches treated with test substance are calculated from this as percent of control, and IC50 values are determined by means of RS1.

In turn, `c1ccc(Cn2cc(-c3c[nH]c4ncccc34)nn2)cc1` [Compound A1, 3-(1-benzyl-1H-1,2,3-triazol-4-yl)-1H-pyrrolo[2,3-b]pyridine] came in with an IC50 in test [1] of 0.5 to 1000 nM. In test [1], `Clc1ccc(Cn2cc(-c3c[nH]c4ncccc34)nn2)cc1` [Compound A2, 3-[1-(4-chlorobenzyl)-1H-1,2,3-triazol-4-yl]-1H-pyrrolo[2,3-b]-pyridine] showed an IC50 of 1000 to 10000 nM.

As for `Cc1[nH]c2ncccc2c1-c1cn(Cc2ccccc2)nn1` [Compound A3, 3-(1-Benzyl-1H-1,2,3-triazol-4-yl)-2-methyl-1H-pyrrolo[2,3-b]pyridine], in test [1], the IC50 lay in the range of 0.5 to 1000 nM. As for `Cn1cc(-c2cnc3[nH]cc(-c4cn(Cc5cccc(F)c5)nn4)c3c2)cn1` [Compound A5, 3-[1-(3-Fluorobenzyl)-1H-1,2,3-triazol-4-yl]-5-(1-methyl-1H-pyrazol-4-yl)-1H-pyrrolo-[2,3-b]pyridine], the IC50 in test [2] fell in the range of 1000 to 10000 nM; in test [1], 0.5 to 1000 nM. As for `Cn1cc(-c2cnc3[nH]cc(-c4cn(Cc5ccc(F)cc5)nn4)c3c2)cn1` [Compound A6, 3-[1-(4-Fluorobenzyl)-1H-1,2,3-triazol-4-yl]-5-(1-methyl-1H-pyrazol-4-yl)-1H-pyrrolo-[2,3-b]pyridine], the IC50 in test [2] fell in the range of 1000 to 10000 nM; in test [1], 0.5 to 1000 nM.

As for `CC(c1ccccc1)n1cc(-c2c[nH]c3ncc(-c4cnn(C)c4)cc23)nn1` (stereo not drawn) [Compound A8, 5-(1-methyl-1H-pyrazol-4-yl)-3-[1-(1-phenylethyl)-1H-1,2,3-triazol-4-yl]-1H-pyrrolo[2,3-b]pyridine], the figures for the IC50 in test [2] and in test [1] were 1000 to 10000 nM and 0.5 to 1000 nM, respectively. As for `COc1ccnc2[nH]cc(-c3cn(Cc4ccccc4)nn3)c12` [Compound A15, 3-(1-benzyl-1H-1,2,3-triazol-4-yl)-4-methoxy-1H-pyrrolo[2,3-b]-pyridine], the IC50 in test [1] lay within 0.5 to 1000 nM. With `CC(c1cccc(C(F)(F)F)c1)n1cc(-c2c[nH]c3ncc(-c4cnn(C)c4)cc23)nn1` (stereo not drawn) [Compound A19, 5-(1-Methyl-1H-pyrazol-4-yl)-3-{1-[1-(3-trifluoromethylphenyl)ethyl]-1H-1,2,3-triazol-4-yl}-1H-pyrrolo[2,3-b]pyridine], the results for the IC50 in test [2] and in test [1] were 1000 to 10000 nM and 0.5 to 1000 nM, respectively. For `Cn1cc(-c2cnc3[nH]cc(-c4cn(Cc5ccc(F)cc5F)nn4)c3c2)cn1` [Compound A21, 3-[1-(2,4-Difluorobenzyl)-1H-1,2,3-triazol-4-yl]-5-(1-methyl-1H-pyrazol-4-yl)-1H-pyrrolo-[2,3-b]pyridine] the same measures were 1000 to 10000 nM and 0.5 to 1000 nM. Regarding `Cn1cc(-c2cnc3[nH]cc(-c4cn(Cc5cccc(C(F)(F)F)c5F)nn4)c3c2)cn1` [Compound A22, 3-[1-(2-Fluoro-3-trifluoromethylbenzyl)-1H-1,2,3-triazol-4-yl]-5-(1-methyl-1H-pyrazol-4-yl)-1H-pyrrolo[2,3-b]pyridine], the IC50 in test [2] was 1000 to 10000 nM; in test [1], 0.5 to 1000 nM.

On to `Cn1cc(-c2cnc3[nH]cc(-c4cn(Cc5cccc(Cl)c5F)nn4)c3c2)cn1` [Compound A23, 3-[1-(3-Chloro-2-fluorobenzyl)-1H-1,2,3-triazol-4-yl]-5-(1-methyl-1H-pyrazol-4-yl)-1H-pyrrolo[2,3-b]pyridine], for which the IC50 in test [2] and in test [1] was 0.5 to 1000 nM each time.

Consider `Cn1cc(-c2cnc3[nH]cc(-c4cn(Cc5c(F)cccc5C(F)(F)F)nn4)c3c2)cn1` [Compound A24, 3-[1-(2-Fluoro-6-trifluoromethylbenzyl)-1H-1,2,3-triazol-4-yl]-5-(1-methyl-1H-pyrazol-4-yl)-1H-pyrrolo[2,3-b]pyridine], for which the IC50 fell in the range of 1000 to 10000 nM in test [2] and 0.5 to 1000 nM in test [1]. Regarding `Cn1cc(-c2cnc3[nH]cc(-c4cn(Cc5ccc(C(F)(F)F)cc5F)nn4)c3c2)cn1` [Compound A26, 3-[1-(2-Fluoro-4-trifluoromethylbenzyl)-1H-1,2,3-triazol-4-yl]-5-(1-methyl-1H-pyrazol-4-yl)-1H-pyrrolo[2,3-b]pyridine], the values for the IC50 in test [2] and in test [1] were 1000 to 10000 nM and 0.5 to 1000 nM, respectively. In test [1], `CC(c1ccc(C(=O)O)cc1)n1cc(-c2c[nH]c3ncc(-c4cnn(C)c4)cc23)nn1` (stereo not drawn) [Compound A27, 4-(1-{4-[5-(1-Methyl-1H-pyrazol-4-yl)-1H-pyrrolo[2,3-b]pyridin-3-yl]-1,2,3-triazol-1-yl}-ethyl)benzoic acid] gave an IC50 of 0.5 to 1000 nM.

As to `Cn1cc(-c2cnc3[nH]cc(-c4cn(C(CC(=O)O)c5ccccc5)nn4)c3c2)cn1` (stereo not drawn) [Compound A28, 3-{4-[5-(1-Methyl-1H-pyrazol-4-yl)-1H-pyrrolo[2,3-b]pyridin-3-yl]-1,2,3-triazol-1-yl}-3-phenylpropionic acid], the IC50 in test [1] lay within 0.5 to 1000 nM. On to `CC(c1ccc(CO)cc1)n1cc(-c2c[nH]c3ncc(-c4cnn(C)c4)cc23)nn1` (stereo not drawn) [Compound A30, [4-(1-{4-[5-(1-Methyl-1H-pyrazol-4-yl)-1H-pyrrolo[2,3-b]pyridin-3-yl]-1,2,3-triazol-1-yl}-ethyl)phenyl]methanol], for which the IC50 is 1000 to 10000 nM in test [2] and 0.5 to 1000 nM in test [1]. In test [2], `Cn1cc(-c2cnc3[nH]cc(-c4cn(Cc5ccncc5F)nn4)c3c2)cn1` [Compound A32, 3-[1-(3-Fluoropyridin-4-ylmethyl)-1H-1,2,3-triazol-4-yl]-5-(1-methyl-1H-pyrazol-4-yl)-1H-pyrrolo[2,3-b]pyridine] showed an IC50 of 1000 to 10000 nM. `COc1cccc(Cn2cc(-c3c[nH]c4ncc(-c5cnn(C)c5)cc34)nn2)c1` [Compound A34, 3-[1-(3-Methoxybenzyl)-1H-1,2,3-triazol-4-yl]-5-(1-methyl-1H-pyrazol-4-yl)-1H-pyrrolo-[2,3-b]pyridine] returned an IC50 in test [2] of 1000 to 10000 nM. For the compound `Cn1cc(-c2cnc3[nH]cc(-c4cn(Cc5ccccc5CO)nn4)c3c2)cn1` [Compound A35, (2-{4-[5-(1-Methyl-1H-pyrazol-4-yl)-1H-pyrrolo[2,3-b]pyridin-3-yl]-1,2,3-triazol-1-ylmethyl}phenyl)methanol], the IC50 in test [2] is 1000 to 10000 nM. Compound `Cn1cc(-c2cnc3[nH]cc(-c4cn(Cc5ccc(OC(F)F)cc5)nn4)c3c2)cn1` [Compound A36, 3-[1-(4-Difluoromethoxybenzyl)-1H-1,2,3-triazol-4-yl]-5-(1-methyl-1H-pyrazol-4-yl)-1H-pyrrolo[2,3-b]pyridine] showed an IC50 in test [2] of 1000 to 10000 nM. The same measure, in the same setting: then `COC(=O)c1cccc(Cn2cc(-c3c[nH]c4ncc(-c5cnn(C)c5)cc34)nn2)c1` [Compound A37, Methyl 3-{4-[5-(1-methyl-1H-pyrazol-4-yl)-1H-pyrrolo[2,3-b]pyridin-3-yl]-1,2,3-triazol-1-ylmethyl}benzoate], with 1000 to 10000 nM. On the same count and under the same terms, then `Cn1cc(-c2cnc3[nH]cc(-c4cn(Cc5ccccc5C#N)nn4)c3c2)cn1` [Compound A38, 2-{4-[5-(1-Methyl-1H-pyrazol-4-yl)-1H-pyrrolo[2,3-b]pyridin-3-yl]-1,2,3-triazol-1-yl-methyl}benzonitrile], with 0.5 to 1000 nM; and `Cn1cc(-c2cnc3[nH]cc(-c4cn(Cc5cccc(OC(F)F)c5)nn4)c3c2)cn1` [Compound A39, 3-[1-(3-Difluoromethoxybenzyl)-1H-1,2,3-triazol-4-yl]-5-(1-methyl-1H-pyrazol-4-yl)-1H-pyrrolo[2,3-b]pyridine], with 1000 to 10000 nM.
